Data: patent USRE48097E1, “Cephem compounds, their production and use” (priority 2015, dated 2020)
Converted amounts (≈) assume the structure as drawn. Like-named read-outs stand apart in the source and are kept apart here.

Columns and labels:
[1] = system: S. aureus 3136; assay: MIC against S. aureus 3136; type: cell-based; conditions: Table 2, S. aureus 3136, MSSA
Description: (§1) Without limitation, the present cephem compounds alone, or in combination with one or more β-lactamase inhibitors, may provide improved antibacterial efficacy, particularly in antibiotic-resistant bacterial strains. It is believed that the present compounds may be structurally different from known compounds and, as a result, may be more basic in nature. It is an advantage that the present compounds may extend the spectrum of effective bacterial compounds, particularly against previously-resistant bacteria (e.g. ESKAPE organisms), and/or gram negative bacteria, without significant side effects. In a preferred embodiment, the present cephem compound may comprise reference compound ceftazidime, which may be used alone, or in combination with one or more β-lactamase inhibitors, such as NXL-104. As shown, the foregoing composition was tested for minimum inhibitory concentration (MIC, μg/mL) against bacteria listed in Tables 2-3.

[2] = system: S. aureus3137; assay: MIC against S. aureus3137; type: cell-based, S. aureus; conditions: Table 2, S. aureus3137, MSSA
Description: as §1

[3] = system: S. aureus 3147; assay: MIC against S. aureus 3147; type: cell-based; conditions: Table 2, S. aureus 3147, MSSA
Description: as §1

[4] = system: S. pneumoniae 2392; assay: MIC against S. pneumoniae 2392; type: cell-based; conditions: Table 2, S. pneumoniae 2392, Pen R
Description: as §1

[5] = system: C. freundii 2003; assay: MIC against C. freundii 2003; type: cell-based; conditions: Table 2, C. freundii 2003, Caz R, IMP S
Description: as §1

[6] = system: K. pneumoniae 4108; assay: MIC against K. pneumoniae 4108; type: cell-based; conditions: K. pneumoniae 4108, KPC-3, TEM-166, SHV-12, SHV-141
Procedure: (§2) As shown, the foregoing composition was tested for minimum inhibitory concentration (MIC, μg/mL) against bacteria listed in Tables 2-3.

[7] = system: E. coli 2671; assay: MIC against E. coli 2671; type: cell-based; conditions: Table 2, E. coli 2671, VIM-19
Description: as §1

[8] = system: E. coli 102; assay: MIC against E. coli 102; type: cell-based; conditions: Table 2, E. coli 102, TEM-1
Description: as §1

[9] = system: K. baumanii 4091; assay: MIC against K. baumanii 4091; type: cell-based; conditions: Table 2, K. baumanii 4091, OXA-23
Description: as §1

[10] = system: K. baumanii 4094; assay: MIC against K. baumanii 4094; type: cell-based; conditions: Table 2, K. baumanii 4094, OXA-51
Description: as §1

[11] = system: E. cloacae 2706; assay: MIC against E. cloacae 2706; type: cell-based; conditions: Table 3, E. cloacae 2706, VIM-1, KPC-3
Procedure: as §2

[12] = system: E. cloacae 2709; assay: MIC against E. cloacae 2709; type: cell-based; conditions: Table 3, E. cloacae 2709, KPC-3, VIM-1
Procedure: as §2

[13] = system: E. coli 4103; assay: MIC against E. coli 4103; type: cell-based; conditions: Table 3, E. coli 4103, KPC-2, TEM-1, CMY-type
Procedure: as §2

[14] = system: K. pneumoniae 2713; assay: MIC against K. pneumoniae 2713; type: cell-based; conditions: Table 3, K. pneumoniae 2713, KPC-3, VIM-1
Procedure: as §2

[15] = Staphylococcus aureus, alone, read-out: MIC
[16] = Streptococcus pneumoniae, alone, read-out: MIC
[17] = Citrobacter freundii, alone, read-out: MIC
[18] = Klebsiella pneumoniae, 4108, Table 2, alone, read-out: MIC
[19] = Klebsiella pneumoniae, 4108, Table 3, alone, read-out: MIC
[20] = Table 2, in combination with NXL-104
[21] = Table 3, in combination with NXL-104
[22] = Escherichia coli, alone, read-out: MIC
[23] = Enterobacter cloacae, alone, read-out: MIC
[24] = Klebsiella pneumoniae, alone, read-out: MIC

Compound | MIC [1, 15] [µg/mL] | MIC ([1]; in combination with NXL-104) [µg/mL] | MIC [2, 15] [µg/mL] | MIC ([2]; in combination with NXL-104) [µg/mL] | MIC [3, 15] [µg/mL] | MIC ([3]; in combination with NXL-104) [µg/mL] | MIC [4, 16] [µg/mL] | MIC ([4]; in combination with NXL-104) [µg/mL] | MIC [5, 17] [µg/mL] | MIC ([5]; in combination with NXL-104) [µg/mL] | MIC [6, 18] [µg/mL] | MIC [6, 19] [µg/mL] | MIC [6, 20] [µg/mL] | MIC [6, 21] [µg/mL] | MIC [7, 22] [µg/mL] | MIC ([7]; in combination with NXL-104) [µg/mL] | MIC [8, 22] [µg/mL] | MIC ([8]; in combination with NXL-104) [µg/mL] | MIC ([9]; alone, read-out: MIC) [µg/mL] | MIC ([9]; in combination with NXL-104) [µg/mL] | further results
CC(C)(O/N=C(\C(=O)N[C@@H]1C(=O)N2C(C(=O)[O-])=C(C[n+]3ccc4n3CCN4Cc3ccc(C(=N)N)cc3)CS[C@H]12)c1csc(N)n1)C(=O)O [Example 2, (6R,7R)-7-{[(2Z)-2-(2-Amino-1,3-thiazol-4-yl)-2-{[(2-carboxypropan-2-yl)oxy]imino}acetyl]amino}-3-{[1-(4-carbamimidoylbenzyl)-2,3-dihydro-1H-imidazo[1,2-b]pyrazol-5-ium-5-yl]methyl}-8-oxo-5-thia-1-azabicyclo[4.2.0]oct-2-ene-2-carboxylate] | 2 | 2.00 | 32 | 32.00 | 2 | 2.00 | 8 | 8.00 | 2 | 0.50 | 4 (≈ 5.64 µM) | > 32 | 1.00 | 2 | 4 | 4.00 | ≤ 0.06 | ≤0.06 | 8 | 2.00 | MIC ([10]; alone, read-out: MIC): 32 µg/mL; MIC ([10]; in combination with NXL-104): 8.00 µg/mL; MIC [11, 23]: > 32 µg/mL; MIC ([11]; in combination with NXL-104): 32 µg/mL; MIC [12, 23]: 16 µg/mL (≈ 22.6 µM); MIC ([12]; in combination with NXL-104): 4 µg/mL; MIC [13, 22]: > 32 µg/mL; MIC ([13]; in combination with NXL-104): 8 µg/mL; MIC [14, 24]: > 32 µg/mL; MIC ([14]; in combination with NXL-104): 2 µg/mL
CC(C)(O/N=C(\C(=O)N[C@@H]1C(=O)N2C(C(=O)[O-])=C(C[n+]3ccc4c(ccn4Cc4cc(C(=N)N)co4)c3)CS[C@H]12)c1csc(N)n1)C(=O)O [Example 6, (6R,7R)-7-{[(2Z)-2-(2-Amino-1,3-thiazol-4-yl)-2-{[(2-carboxypropan-2-yl)oxy]imino}acetyl]amino}-3-({1-[(4-carbamimidoylfuran-2-yl)methyl]-1H-pyrrolo[3,2-c]pyridin-5-ium-5-yl}methyl)-8-oxo-5-thia-1-azabicyclo[4.2.0]oct-2-ene-2-carboxylate] | 4 | 4.00 | 32 | 8.00 | 4 | 4.00 | 2 | 2.00 | 4 | 0.50 | 16 (≈ 22.6 µM) | 32 (≈ 45.2 µM) | 0.50 | 1 | 32 | 32.00 | ≤ 0.06 | ≤0.06 | 16 | 4.00 | MIC ([10]; alone, read-out: MIC): 16 µg/mL; MIC ([10]; in combination with NXL-104): 8.00 µg/mL; MIC [11, 23]: > 32 µg/mL; MIC ([11]; in combination with NXL-104): 32 µg/mL; MIC [12, 23]: 32 µg/mL (≈ 45.2 µM); MIC ([12]; in combination with NXL-104): 4 µg/mL; MIC [13, 22]: > 32 µg/mL; MIC ([13]; in combination with NXL-104): 4 µg/mL; MIC [14, 24]: > 32 µg/mL; MIC ([14]; in combination with NXL-104): 2 µg/mL
